Measurements as given in patent US7153822B2, “Compositions and methods for modulating connexin hemichannels” (Wyeth, priority 2002, dated 2006).
“Also recorded” adds a separate entry of the source. Square brackets hold non-standard residues; d marks the D form. Peptide text beside a SMILES is read from it. dHyp = O=C(O)[C@H]1C[C@H](O)CN1

Assays:
[1] = tested on: connexin 43 (Cx43); assay: immunoprecipitation and immunoblot of phosphorylated connexin 43; format: cell-based
Procedure: H9c2 cells were seeded in 24-multi well dishes in a density of 7,900 cells/cm^2 (˜15,000 cells/well) and grown for 3 days in MEM suplemented with 10% foetal calf serum (FCS) and 1000 units penicillin/1000 μg streptomycin (pen/strep) in an atmosphere of 5% CO2 and 100% humidity at 37° C.
The labelled cells were incubated in Triton X-100 lysis buffer (˜5*10^7 cells/ml) for 1 hr at 4° C. The lysate is centrifuged 30 min at 20,000*g for 30 min. The supernatant was precleared by adding 10 ul Sepharose per 200 μl supernatant. The precleared supernatant were then added 0.5–1 μg phospho-tyrosine or phospho-serine antibodies (Sigma) and incubated for 1.5 hr at 4° C. in an orbital shaker. The antibody-complex was then captured by incubation with 50 μl of a 1:1 slurry of protein G Sepharose for 1.5 hr. Finally the complex were extensively washed with 0.1% (w/v) Triton X-100, 50 mM Tris, pH 7.4, 300 mM NaCl and 5 mM EDTA.
The complexes were loaded onto a 12% SDS gel and blotted onto a PVDF membrane. The membrane is blocked with 0.1% Tween 20, 50 mM Tris, pH 7.4, 300 mM NaCl, 5% dry milk (TBST) for minimum 2 h. The membrane was subsequently incubated with connexin 43 specific antibodies (Zymed) for 1.5 h at RT and developed with ECL+ (Amersham).

[2] = tested on: the receptor; assay: in situ binding and animal studies
Procedure: Compounds used in this example were made using standard solid phase Fmoc chemistry. See the prior examples. Identification was performed by mass spectrometry, and the purity, determined by RP-HPLC. […] Initial studies with compound 1 in 1 nM, 10 nM, 50 nM and 100 nM will determine whether studies with the following peptides compound 3 (H-GAG-4-Hyp-PY-NH2) and compound 4 (H-GNY-NH2) are conducted. These studies will also determine whether studies involving specific kinase inhibitors are conducted.

[3] = tested on: infarcted mice; assay: bone marrow cell transplantation after myocardial infarction (design of Orlic et al); format: in vivo; conditions: repeated administration during the proliferation process
Excerpt: Myocardial infarction leads to loss of tissue and impairment of cardiac performance. The remaining myocytes are unable to reconstitute the necrotic tissue, and the post-infarcted heart deteriorates with time. Injury to a target organ is sensed by distant stem cells, which migrate to the site of damage and undergo alternate stem cell differentiation; these events promote structural and functional repair. This high degree of stem cell plasticity prompted Orlic et al (Nature 410, 701–705 (2001)) to test whether dead myocardium could be restored by transplanting bone marrow cells in infarcted mice. They sorted lineage-negative (Lin−) bone marrow cells from transgenic mice expressing enhanced green fluorescent protein by fluorescence-activated cell sorting on the basis of c-kit expression. Shortly after coronary ligation, Lin− c-kitPOS cells were injected in the contracting wall bordering the infarct. […] The developing tissue comprised proliferating myocytes and vascular structures. Their studies indicate that locally delivered bone marrow cells can generate de novo myocardium, ameliorating the outcome of coronary artery disease. […]

[4] = tested on: connexin hemi-channels; assay: calcein dye uptake in cardiomyocytes under stress buffer (Example 6); format: cell-based, rat
Procedure: 1. Methods Ventricular myocytes were isolated from neonate rats by trypsin digestion and plated onto collagen-coated cover slips. After four days the myocytes formed confluent and synchronously beating sheets of cells. To measure dye uptake, cells were incubated in buffer containing 200 μM calcein for 30 minutes at room temperature. Then coverslips were thoroughly washed with control buffer and mounted in an open bath chamber and superfused with control buffer (RT). Cells were excited with 480 nm light by means of a Xenon lamp and a monochromator. Images of the fluorescence emitted at 510 nm were collected by a cooled CCD camera (Sensicam). Excitation control and image acquisition was controlled using Imaging workbench (Axon).
Under light microscopy three regions were placed over cardiomyocytes in an image. Then average fluorescence intensity was measured, and the procedure was repeated until 30 regions in 10 images had been measured. The average of these measurements were used as value for the given experimental condition, that is n=1. In each series one control incubation was performed and all experimental values are given as relative to this value.
Solutions: Control buffer (in mM): NaCl 136, KCl 4, MgCl2 0.8, CaCl2 1.8 HEPES 5, MES 5, Glucose 6, pH 7.3 Stress buffer (in mM): NaCl 136, KCl 8, MgCl2 0.8, CaCl2 1.8 HEPES 5, MES 5, Deoxy-glucose 10, pH 6.2

CC(=O)N[C@H](Cc1ccc(O)cc1)C(=O)N1CCC[C@@H]1C(=O)N1C[C@@H](O)C[C@@H]1C(=O)NCC(=O)N[C@H](C)C(=O)NCC(N)=O [Compound 1, Ac-D-Tyr-D-Pro-D-4Hyp-Gly-D-Ala-Gly-NH2] (Ac-[dY][dP][dHyp]G[dA]G-NH2)
connexin 43 tyrosine phosphorylation ([1]; cardiomyocytes exposed for 4 h with 0, 1, 10, 50 and 100 nM): increase connexin 43 tyrosine phosphorylation | tyrosine phosphorylation of connexin 43 ([1]; cultured H9c2 cardiomyocytes): phosphorylation of Cx43 tyrosine; also recorded: mediates tyrosine phosphorylation of connexin 43 | Ser-phosphorylation of connexin 43 ([1]; in some experiments): decrease Ser-phosphorylation | binding to the receptor [2]: nano-molar range | connexin 43 expression [3]: increase in connexin 43 expression | EC50 ([4]; 0.1 pM to 10 nM, sigmoidal function, read-out: ED50 for reduction of stress-induced calcein uptake): 3.3 ± 5.3 pM | average fluorescence intensity during maximal inhibition, above control ([4]; stress buffer (stress alone 36.2±4.18% higher)): 6.9±1.7 % above control | effect on uptake of calcein ([4]; stress, 0.1 pM to 10 nM): dose-dependently reduced the uptake of calcein
